The values that follow come from patent US7964559B2, “MVL, an antiviral protein from a cyanobacterium” (The United States of America, as represented by the …, priority 2004, dated 2011).

“Also recorded” adds a separate entry of the source. Like-named read-outs stand apart in the source and are kept apart here.

For experiment [1], the target named is T1, MVL (Microcystis viridis, UniProt Q9RHG4). Format: binding. The settings on record: for Binding to MVL: Table 1, MVL binding studies.
The target in experiment [2] is T1, MVL. Format: binding. The settings on record: for Stoichiometry: carbohydrates per MVL monomer, 10 mM Tris pH 6.5; for ΔG: ΔG = −RT · lnKA, T = 298 K.
Experiment [3] concerns the target T1, MVL. Format: cell-based.
For experiment [4], the system named is HIV-1 macrophage tropic (M-tropic) strain SF162. The settings on record: read-out: IC50, inhibition of Env-mediated fusion.
Experiment [5] has as its system HIV-1 T-cell tropic (T-tropic) strain LAV. The settings on record: read-out: IC50, inhibition of Env-mediated fusion.
The subject of experiment [6] is M-tropic virus SF162 and a T-tropic virus (LAV). Description: Single round HIV-infectivity assay. Format: cell-based. The settings on record: read-out: approximate IC50, HIV infectivity.
[7] abbreviates: excess carbohydrate, pH 6.85, 27° C.

`CC(=O)N[C@H]1[C@H](O[C@H]2[C@H](O)[C@@H](NC(C)=O)C(O)O[C@@H]2CO)O[C@H](CO)[C@@H](O)[C@@H]1O` (stereo partly shown) [GlcNAcβ(1→4) GlcNAc, GlcNAcβ(1→4)GlcNAc]: the “binding to MVL / change of 1H-15N correlation spectra of MVL” value (from here on “binding to MVL / change”) on MVL [1] (setting [7]) was “nor do they bind”; on MVL [1] (excess carbohydrate, pH 6.85, 27° C., listed as GlcNAc2), “identical to that of free MVL”.
For `CC(=O)N[C@H]1C(O)O[C@H](CO)[C@@H](O[C@@H]2O[C@H](CO)[C@@H](O)[C@H](O)[C@@H]2O)[C@@H]1O` (stereo partly shown) [Manβ(1→4)GlcNAc], at MVL [1] (pH 6.85), the “binding to MVL / change” value is “nor do they bind”.
The molecule `CC(=O)N[C@H]1[C@H](O[C@H]2[C@H](O)[C@@H](NC(C)=O)C(O)O[C@@H]2CO)O[C@H](CO)[C@@H](O[C@@H]2O[C@H](CO[C@H]3O[C@H](CO)[C@@H](O)[C@H](O)[C@@H]3O)[C@@H](O)[C@H](O)[C@@H]2O)[C@@H]1O` (stereo partly shown) [oligomannose-2A, Manα(1→6)Manβ(1→4)GlcNAcβ(1→4)GlcNAc] displayed a ΔH at MVL [2] (25° C., pH 6.5) of -10.5 ± 0.04 kcal/mol. For the same molecule, the Stoichiometry on MVL [2] (one site model, 25° C., listed as Man2A) is 2.04 ± 0.05; at MVL [2] (one site model, 25° C., listed as Man2GlcNAc2), “two”. Also, on MVL [2], the ΔG is -7.4 ± 0.6 kcal/mol. For the same molecule, the “Binding to MVL” value on MVL [1] is 3. Also, the “binding to MVL / change” value at MVL [1] (setting [7]) was “binds with high affinity”.
As to `CC(=O)N[C@H]1[C@H](O[C@H]2[C@H](O)[C@@H](NC(C)=O)C(O)O[C@@H]2CO)O[C@H](CO)[C@@H](O[C@@H]2O[C@H](CO[C@H]3O[C@H](CO[C@H]4O[C@H](CO)[C@@H](O)[C@H](O)[C@@H]4O)[C@@H](O)[C@H](O[C@H]4O[C@H](CO)[C@@H](O)[C@H](O)[C@@H]4O)[C@@H]3O)[C@@H](O)[C@H](O[C@H]3O[C@H](CO)[C@@H](O)[C@H](O)[C@@H]3O)[C@@H]2O)[C@@H]1O` (stereo partly shown) [oligomannose-5, Man5GlcNAc2], at MVL [1], the “Binding to MVL” value stood at 3.
Man6GlcNAc2 [oligomannose-6] gave a ΔH on MVL [2] (25° C., pH 6.5) of -20.8 ± 0.1 kcal/mol. For the same molecule, the Stoichiometry is 2.06 ± 0.01 at MVL [2] (one site model, 25° C., listed as Man6) and “two” on MVL [2] (one site model, 25° C., listed as Man6GlcNAc2). For the same molecule, the Ka at MVL [2] (equilibrium association constant, one site model, 25° C., pH 6.5) is on record as 4.5 (±0.3)×10^6 M^−1. At MVL [2], this molecule returned a ΔG of -9.0 ± 0.6 kcal/mol. In addition, on MVL [1] ((2πΔδ)^−1 from chemical shift differences), the “lifetime of the MVL:carbohydrate complex” value is reported as greater than 16 ms. Also, the “Binding to MVL” value at MVL [1] stood at 3. The “binding to MVL / change” value at MVL [1] (setting [7]) is “dramatic changes”.
On to Man9GlcNAc2 [oligomannose-9], for which, at MVL [1], the “Binding to MVL” value stood at 3. In addition, the “effect of pretreatment of MVL on inhibition of fusion by MVL” value at MVL [3] (MVL 200 nM, 5-fold excess of carbohydrate) is reported as “partially reduced inhibition”.
“Manα (1→3)[Manα(1→6)]Manβ [Manα(1→3)[Manα(1→6)]Man]”: the “binding to MVL / change” value at MVL [1] (pH 6.85) is listed as “identical to that of free MVL; also recorded: nor do they bind”. For the same molecule, the “effect of pretreatment of MVL on inhibition of fusion by MVL” value on MVL [3] is reported as “no effect”.

B1: MVL: 113 amino acid, 13 kDa carbohydrate binding protein (lectin) from Microcystis viridis NIES-102, SEQ ID NO: 3 (protein, listed as Microcystis viridis)
chain: ASYKVNIPAGPLWSNAEAQQVGPKIAAAHQGNFTGQWTTVVESAMSVVEVELQVENTGIHEFKTDVLAGPLWSNDEAQKLGPQIAASYGAEFTGQWRTIVEGVMSVIQIKYTF
Turning to B1, the IC50 in experiment [4] is 37 ± 6 nM; in experiment [5] it was 30 ± 4 nM; in experiment [6], 30 to 50 nM.
